Results from patent US12528812B2 (Genentech, Inc., priority 2020, dated 2026).
Read-outs that look alike come from different tables or passages of the source.

Assays:
[1] = target: T1, recombinant human JAK1 kinase domain protein (Residues 854-1154) (Homo sapiens, UniProt P23458); test: JAK1 biochemical assay (LabChip mobility shift, Ki); details: read-out: Biochem JAK1 Ki
T1 construct: human JAK1 kinase domain protein (Residues 854-1154); purchased Proteros Biostructures GmbH (Martinsried, Germany); host or cells: insect cells

[2] = tested on: IL-13-stimulated STAT6 phosphorylation in human lung bronchial epithelial BEAS-2B cell line; test: P-STAT6 BEAS-2B + IL-13 cell assay; assay type: cell-based; details: BEAS2B cells, IL13 stimulation, read-out: Cellular JAK1 PSTAT6 BEAS2B + IL13
Method in brief: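 Phospho-STAT6 (Tyr641) was quantified in lysates by MSD electrochemiluminescence after human IL-13 challenge (250 ng/mL stock, 15 min, 37 °C). Before that, BEAS-2B cells cultured 48 h had 1 h compound exposure over 10 concentrations. Percent of control was fitted to a four-parameter logistic model to give IC50.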

[3] = target: Recombinant human JAK2 kinase domain protein (Residues 812-1132) (Homo sapiens, UniProt O60674); test: JAK2 biochemical assay (LabChip mobility shift, Ki); details: Biochem JAK2 Ki
Recombinant human JAK2 kinase domain protein (Residues 812-1132), sequence (O60674 812-1132): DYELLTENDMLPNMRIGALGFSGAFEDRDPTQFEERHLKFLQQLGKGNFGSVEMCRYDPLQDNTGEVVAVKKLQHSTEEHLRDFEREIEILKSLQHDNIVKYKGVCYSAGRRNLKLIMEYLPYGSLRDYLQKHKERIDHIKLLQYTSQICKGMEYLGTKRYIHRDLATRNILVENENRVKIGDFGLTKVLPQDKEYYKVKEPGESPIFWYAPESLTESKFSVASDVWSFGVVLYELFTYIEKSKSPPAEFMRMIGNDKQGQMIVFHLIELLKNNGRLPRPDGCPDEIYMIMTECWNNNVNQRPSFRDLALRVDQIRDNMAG

T1 sequence (P23458 854-1154): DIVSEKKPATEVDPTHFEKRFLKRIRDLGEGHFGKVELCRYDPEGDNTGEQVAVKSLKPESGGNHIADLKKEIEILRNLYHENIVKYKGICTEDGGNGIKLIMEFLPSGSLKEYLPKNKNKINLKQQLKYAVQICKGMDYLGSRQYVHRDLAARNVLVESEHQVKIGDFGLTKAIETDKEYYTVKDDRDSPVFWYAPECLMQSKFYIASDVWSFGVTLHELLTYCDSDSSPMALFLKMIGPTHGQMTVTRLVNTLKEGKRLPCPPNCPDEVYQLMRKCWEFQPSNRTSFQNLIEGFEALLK

Ki [1] [nM]	Ki [3] [nM]	SMILES	IC50 ([2]; Homo sapiens, BEAS-2B) [nM]	IC50 [2] [nM]
0.21	0.21	N#CCc1cccc(Oc2ccc(OC(F)F)c(-c3n[nH]cc3NC(=O)c3cnn4cccnc34)c2)c1 [Example 12, N-[3-[5-[3-(cyanomethyl)phenoxy]-2-(difluoromethoxy)phenyl]-1H-pyrazol-4-yl]pyrazolo[1,5-a]pyrimidine-3-carboxamide]	18	–
0.91	0.77	Cn1cc(NC(=O)c2cnn3cccnc23)c(-c2cc(Oc3cnn([C@H]4C[C@H](N)C4)c3)ccc2OC(F)F)n1 [Example 188, N-[3-[5-[1-(3-aminocyclobutyl)pyrazol-4-yl]oxy-2-(difluoromethoxy)phenyl]-1-methyl-pyrazol-4-yl]pyrazolo[1,5-a]pyrimidine-3-carboxamide]	150	–
0.35	0.24	CN(C)C(=O)c1cccc(Oc2ccc(OC(F)F)c(-c3nn(C)cc3NC(=O)c3cnn4cccnc34)c2)c1 [Example 62, N-[3-[2-(difluoromethoxy)-5-[3-(dimethylcarbamoyl)phenoxy]phenyl]-1-methyl-pyrazol-4-yl]pyrazolo[1,5-a]pyrimidine-3-carboxamide]	14	–
1.5	0.37	Cn1cc(NC(=O)c2cnn3cccnc23)c(-c2cc(Oc3ccc(CN4CCC[C@@H](O)C4)cc3)ccc2OC(F)F)n1 (racemic) [Example 163, N-[3-[2-(difluoromethoxy)-5-[4-[[rac-(3R)-3-hydroxy-1-piperidyl]methyl]phenoxy]phenyl]-1-methyl-pyrazol-4-yl]pyrazolo[1,5-a]pyrimidine-3-carboxamide]	21	–
0.41	0.24	CNC(=O)c1ccc(Oc2ccc(OC(F)F)c(-c3nn(C)cc3NC(=O)c3cnn4cccnc34)c2)cc1 [Example 131, N-[3-[2-(difluoromethoxy)-5-[4-(methylcarbamoyl)phenoxy]phenyl]-1-methyl-pyrazol-4-yl]pyrazolo[1,5-a]pyrimidine-3-carboxamide]	23	–
0.39	0.28	NCc1cc(Oc2ccc(OC(F)F)c(-c3n[nH]cc3NC(=O)c3cnn4cccnc34)c2)ccc1F [Example 19, N-[3-[5-[3-(aminomethyl)-4-fluoro-phenoxy]-2-(difluoromethoxy)phenyl]-1H-pyrazol-4-yl]pyrazolo[1,5-a]pyrimidine-3-carboxamide]	49	–
1.5	1.3	Cn1cc(NC(=O)c2cnn3cccnc23)c(-c2cc(Oc3cccc(CN)n3)ccc2OC(F)F)n1 [Example 39, N-[3-[5-[[6-(aminomethyl)-2-pyridyl]oxy]-2-(difluoromethoxy)phenyl]-1-methyl-pyrazol-4-yl]pyrazolo[1,5-a]pyrimidine-3-carboxamide]	35	–
0.45	0.24	CC(=O)c1cc(Oc2ccc(OC(F)F)c(-c3n[nH]cc3NC(=O)c3cnn4cccnc34)c2)ccc1C [Example 44, N-[3-[5-(3-acetyl-4-methyl-phenoxy)-2-(difluoromethoxy)phenyl]-1H-pyrazol-4-yl]pyrazolo[1,5-a]pyrimidine-3-carboxamide]	5.7	–
0.95	0.43	Cn1cc(NC(=O)c2cnn3cccnc23)c(-c2cc(Oc3cccc([C@H]4COCCN4)c3)ccc2OC(F)F)n1 (stereo in doubt) [Example 33, N-[3-[2-(difluoromethoxy)-5-[3-[rac-(3S)-morpholin-3-yl]phenoxy]phenyl]-1-methyl-pyrazol-4-yl]pyrazolo[1,5-a]pyrimidine-3-carboxamide]	62	–
0.4	0.27	Cn1cc(NC(=O)c2cnn3cccnc23)c(-c2cc(Oc3ccc4c(c3)CN(CCO)CC4)ccc2OC(F)F)n1 [Example 76, N-[3-[2-(difluoromethoxy)-5-[[2-(2-hydroxyethyl)-3,4-dihydro-1H-isoquinolin-7-yl]oxy]phenyl]-1-methyl-pyrazol-4-yl]pyrazolo[1,5-a]pyrimidine-3-carboxamide]	12	–
0.43	0.5	Cn1cc(NC(=O)c2cnn3cccnc23)c(-c2cc(Oc3cnn(C4CC(O)C4)c3)ccc2OC(F)F)n1 (stereo not drawn) [Example 118, N-[3-[2-(difluoromethoxy)-5-[1-(3-hydroxycyclobutyl)pyrazol-4-yl]oxy-phenyl]-1-methyl-pyrazol-4-yl]pyrazolo[1,5-a]pyrimidine-3-carboxamide]	48	–
0.61	0.26	Cc1cc(Oc2ccc(OC(F)F)c(-c3nn(C)cc3NC(=O)c3cnn4cccnc34)c2)ccc1C(=O)N(C)C [Example 74, N-[3-[2-(difluoromethoxy)-5-[4-(dimethylcarbamoyl)-3-methyl-phenoxy]phenyl]-1-methyl-pyrazol-4-yl]pyrazolo[1,5-a]pyrimidine-3-carboxamide]	30	–
1.6	1.7	CN(C)CCn1cc(Oc2ccc(OC(F)F)c(-c3nn(C)cc3NC(=O)c3cnn4cccnc34)c2)cn1 [Example 73, N-[3-[2-(difluoromethoxy)-5-[1-[2-(dimethylamino)ethyl]pyrazol-4-yl]oxy-phenyl]-1-methyl-pyrazol-4-yl]pyrazolo[1,5-a]pyrimidine-3-carboxamide]	95	–
0.54	0.19	CN1CCC(O)(Cn2cc(Oc3ccc(OC(F)F)c(-c4nn(C)cc4NC(=O)c4cnn5cccnc45)c3)cn2)CC1 [Example 191, N-[3-[2-(difluoromethoxy)-5-[1-[(4-hydroxy-1-methyl-4-piperidyl)methyl]pyrazol-4-yl]oxy-phenyl]-1-methyl-pyrazol-4-yl]pyrazolo[1,5-a]pyrimidine-3-carboxamide]	110	–
1.5	1.9	NCc1ccccc1Oc1ccc(OC(F)F)c(-c2n[nH]cc2NC(=O)c2cnn3cccnc23)c1 [Example 7, N-[3-[5-[2-(aminomethyl)phenoxy]-2-(difluoromethoxy)phenyl]-1H-pyrazol-4-yl]pyrazolo[1,5-a]pyrimidine-3-carboxamide]	360	–
0.62	0.29	CN1CCN(C(=O)Cc2ccc(Oc3ccc(OC(F)F)c(-c4nn(C)cc4NC(=O)c4cnn5cccnc45)c3)cc2)CC1 [Example 146, N-[3-[2-(difluoromethoxy)-5-[4-[2-(4-methylpiperazin-1-yl)-2-oxo-ethyl]phenoxy]phenyl]-1-methyl-pyrazol-4-yl]pyrazolo[1,5-a]pyrimidine-3-carboxamide]	40	–
0.28	0.22	Cn1cc(NC(=O)c2cnn3cccnc23)c(-c2cc(Oc3ccc(C4(CC#N)COC4)cc3)ccc2OC(F)F)n1 [Example 147]	19	–
0.8	0.52	CN1CCCC(O)(Cn2cc(Oc3ccc(OC(F)F)c(-c4nn(C)cc4NC(=O)c4cnn5cccnc45)c3)cn2)CC1 (stereo not drawn) [Example 196, N-[3-[2-(difluoromethoxy)-5-[1-[(4-hydroxy-1-methyl-azepan-4-yl)methyl]pyrazol-4-yl]oxy-phenyl]-1-methyl-pyrazol-4-yl]pyrazolo[1,5-a]pyrimidine-3-carboxamide]	120	–
0.9	0.52	Cn1cc(NC(=O)c2cnn3cccnc23)c(-c2cc(Oc3cnn(C4CC(O)C4)c3)ccc2OC(F)F)n1 (stereo not drawn) [Example 119, N-[3-[2-(difluoromethoxy)-5-[1-(3-hydroxycyclobutyl)pyrazol-4-yl]oxy-phenyl]-1-methyl-pyrazol-4-yl]pyrazolo[1,5-a]pyrimidine-3-carboxamide]	–	41
0.31	0.24	CN(C)C(=O)c1ccc(Oc2ccc(OC(F)F)c(-c3nn(C)cc3NC(=O)c3cnn4cccnc34)c2)cc1 [Example 88, N-[3-[2-(difluoromethoxy)-5-[4-(dimethylcarbamoyl)phenoxy]phenyl]-1-methyl-pyrazol-4-yl]pyrazolo[1,5-a]pyrimidine-3-carboxamide]	15	–
0.87	2.8	CN1CC(O)(c2cccc(Oc3ccc(OC(F)F)c(-c4nn(C5CCOCC5)cc4NC(=O)c4cnn5cccnc45)c3)c2)C1 [Example 98, N-[3-[2-(difluoromethoxy)-5-[3-(3-hydroxy-l-methyl-azetidin-3-yl)phenoxy]phenyl]-1-tetrahydropyran-4-yl-pyrazol-4-yl]pyrazolo[1,5-a]pyrimidine-3-carboxamide]	61	–
0.54	0.37	CN(C)C(=O)c1cncc(Oc2ccc(OC(F)F)c(-c3nn(C)cc3NC(=O)c3cnn4cccnc34)c2)c1 [Example 159, N-[3-[2-(difluoromethoxy)-5-[[5-(dimethylcarbamoyl)-3-pyridyl]oxy]phenyl]-1-methyl-pyrazol-4-yl]pyrazolo[1,5-a]pyrimidine-3-carboxamide]	43	–

SMILES	Ki [1] [nM]	Ki [3] [nM]	IC50 ([2]; Homo sapiens, BEAS-2B) [nM]	IC50 [2] [nM]
Cn1cc(NC(=O)c2cnn3cccnc23)c(-c2cc(Oc3cnn(CC4(O)CN5CCC4CC5)c3)ccc2OC(F)F)n1 (stereo not drawn) [Example 199, N-[3-[2-(difluoromethoxy)-5-[1-[(3-hydroxyquinuclidin-3-yl)methyl]pyrazol-4-yl]oxy-phenyl]-1-methyl-pyrazol-4-yl]pyrazolo[1,5-a]pyrimidine-3-carboxamide]	0.88	0.43	–	130
